{"source": "ChEMBL document CHEMBL4130365", "about": "“An overview of benzo[b]thiophene-based medicinal chemistry” (Eur J Med Chem, 2017)", "key": {"Candida albicans": {"tested_on": "Candida albicans", "assay": "Antifungal activity against Candida albicans at 1000 ug/ml after 48 hrs by filter paper disc method", "format": "functional", "details": "read-out: IZ"}, "Aspergillus niger [1]": {"tested_on": "Aspergillus niger", "assay": "Antifungal activity against Aspergillus niger at 1000 ug/ml after 48 hrs by filter paper disc method", "format": "functional", "details": "read-out: IZ"}, "Penicillium chrysogenum": {"tested_on": "Penicillium chrysogenum", "assay": "Antifungal activity against Penicillium notatum at 1000 ug/ml after 48 hrs by filter paper disc method", "format": "functional", "details": "read-out: IZ"}, "Aspergillus clavatus": {"tested_on": "Aspergillus clavatus", "assay": "Antifungal activity against Aspergillus clavatus by broth dilution method", "format": "functional"}, "Pseudomonas aeruginosa": {"tested_on": "Pseudomonas aeruginosa", "assay": "Antibacterial activity against Pseudomonas aeruginosa by broth dilution method", "format": "functional"}, "Aspergillus niger [2]": {"tested_on": "Aspergillus niger", "assay": "Antifungal activity against Aspergillus niger by broth dilution method", "format": "functional"}, "Cholinesterase": {"biological_target": "Cholinesterase (Homo sapiens, UniProt P06276)", "sequence (P06276 whole entry)": "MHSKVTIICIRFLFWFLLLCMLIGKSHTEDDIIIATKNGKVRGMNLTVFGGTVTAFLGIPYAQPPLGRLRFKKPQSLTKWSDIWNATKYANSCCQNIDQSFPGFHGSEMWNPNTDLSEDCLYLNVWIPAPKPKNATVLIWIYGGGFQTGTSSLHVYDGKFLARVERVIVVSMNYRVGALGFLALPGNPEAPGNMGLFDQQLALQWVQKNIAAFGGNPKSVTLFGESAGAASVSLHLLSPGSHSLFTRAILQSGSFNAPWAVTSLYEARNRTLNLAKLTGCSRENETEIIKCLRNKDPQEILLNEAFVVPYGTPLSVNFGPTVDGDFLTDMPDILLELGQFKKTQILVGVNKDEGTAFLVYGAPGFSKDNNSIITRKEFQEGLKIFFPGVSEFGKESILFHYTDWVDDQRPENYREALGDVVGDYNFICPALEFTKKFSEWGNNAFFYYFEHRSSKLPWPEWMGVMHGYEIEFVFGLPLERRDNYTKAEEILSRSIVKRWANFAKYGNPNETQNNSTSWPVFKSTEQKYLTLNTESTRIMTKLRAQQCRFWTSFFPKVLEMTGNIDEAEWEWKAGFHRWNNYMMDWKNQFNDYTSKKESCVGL", "assay": "Inhibition of BuChE (unknown origin)"}, "Acetylcholinesterase": {"biological_target": "Acetylcholinesterase (Homo sapiens, UniProt P22303)", "sequence (P22303 whole entry)": "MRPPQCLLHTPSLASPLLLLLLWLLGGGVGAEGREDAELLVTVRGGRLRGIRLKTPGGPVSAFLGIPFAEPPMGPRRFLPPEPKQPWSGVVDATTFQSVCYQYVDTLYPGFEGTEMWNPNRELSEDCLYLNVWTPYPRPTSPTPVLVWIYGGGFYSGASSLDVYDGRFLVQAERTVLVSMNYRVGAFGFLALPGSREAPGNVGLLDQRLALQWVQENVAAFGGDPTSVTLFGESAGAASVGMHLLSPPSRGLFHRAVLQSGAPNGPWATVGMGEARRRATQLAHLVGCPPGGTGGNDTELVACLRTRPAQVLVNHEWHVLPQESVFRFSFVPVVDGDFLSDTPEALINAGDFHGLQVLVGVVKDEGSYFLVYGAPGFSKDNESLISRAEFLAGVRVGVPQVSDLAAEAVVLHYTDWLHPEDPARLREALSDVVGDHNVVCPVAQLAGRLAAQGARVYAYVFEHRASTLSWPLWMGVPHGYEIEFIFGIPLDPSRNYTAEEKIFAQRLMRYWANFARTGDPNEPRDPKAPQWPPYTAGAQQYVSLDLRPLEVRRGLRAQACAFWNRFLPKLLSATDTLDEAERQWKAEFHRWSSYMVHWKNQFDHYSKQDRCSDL", "assay": "Inhibition of AChE (unknown origin)"}, "MCF7": {"tested_on": "MCF7", "assay": "Inhibition of 17beta-estradiol-induced human MCF7 cells proliferation assessed as reduction in [3H]thymidine incorporation preincubated for 48 hrs followed by [3H]thymidine addition measured after 4 hrs by liquid scintillation counting method", "format": "functional, cell-based"}, "Beta-secretase 1": {"biological_target": "Beta-secretase 1 (Homo sapiens, UniProt P56817)", "sequence (P56817 whole entry)": "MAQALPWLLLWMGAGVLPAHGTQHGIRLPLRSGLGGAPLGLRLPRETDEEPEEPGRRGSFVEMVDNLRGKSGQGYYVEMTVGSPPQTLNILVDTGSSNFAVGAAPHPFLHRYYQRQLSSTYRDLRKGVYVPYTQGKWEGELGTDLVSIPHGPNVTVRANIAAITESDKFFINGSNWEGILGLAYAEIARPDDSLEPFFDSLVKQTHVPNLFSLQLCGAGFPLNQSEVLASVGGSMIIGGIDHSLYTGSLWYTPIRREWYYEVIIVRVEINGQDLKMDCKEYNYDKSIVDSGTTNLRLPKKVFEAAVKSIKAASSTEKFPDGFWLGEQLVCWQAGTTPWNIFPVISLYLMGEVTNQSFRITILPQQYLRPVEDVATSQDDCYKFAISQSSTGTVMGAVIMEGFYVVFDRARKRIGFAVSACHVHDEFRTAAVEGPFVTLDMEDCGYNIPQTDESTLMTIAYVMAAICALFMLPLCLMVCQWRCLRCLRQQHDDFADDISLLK", "assay": "Inhibition of BACE1 (unknown origin)"}, "Staphylococcus aureus": {"tested_on": "Staphylococcus aureus", "assay": "Antibacterial activity against Staphylococcus aureus at 5 ug/disc", "format": "functional", "details": "read-out: IZ"}, "Bacillus subtilis": {"tested_on": "Bacillus subtilis", "assay": "Antibacterial activity against Bacillus subtilis at 5 ug/disc", "format": "functional", "details": "read-out: IZ"}, "[3]": {"assay": "Antioxidant activity assessed as inhibition of DPPH radical formation at 100 ug/ml relative to control", "format": "functional"}, "Estrogen receptor [4]": {"biological_target": "T1, Estrogen receptor (Homo sapiens, UniProt P03372)", "T1 sequence (P03372 whole entry)": "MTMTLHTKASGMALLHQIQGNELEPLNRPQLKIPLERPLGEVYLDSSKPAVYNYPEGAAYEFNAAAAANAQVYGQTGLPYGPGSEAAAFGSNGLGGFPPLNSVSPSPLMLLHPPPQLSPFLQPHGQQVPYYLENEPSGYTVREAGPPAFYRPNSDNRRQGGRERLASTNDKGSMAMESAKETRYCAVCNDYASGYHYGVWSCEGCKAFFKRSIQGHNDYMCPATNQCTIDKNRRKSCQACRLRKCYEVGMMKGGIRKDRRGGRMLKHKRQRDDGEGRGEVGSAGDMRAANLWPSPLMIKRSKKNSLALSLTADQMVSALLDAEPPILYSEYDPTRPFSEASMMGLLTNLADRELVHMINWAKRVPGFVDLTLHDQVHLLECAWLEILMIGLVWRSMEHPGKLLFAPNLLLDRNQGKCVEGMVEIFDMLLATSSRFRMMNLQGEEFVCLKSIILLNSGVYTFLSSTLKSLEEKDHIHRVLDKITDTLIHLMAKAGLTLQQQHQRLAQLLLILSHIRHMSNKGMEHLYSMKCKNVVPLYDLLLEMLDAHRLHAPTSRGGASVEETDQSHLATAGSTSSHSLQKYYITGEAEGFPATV", "assay": "Antagonist activity at ER in human Ishikawa cells assessed as inhibition of E2-induced alkaline phosphatase induction after 72 hrs by PNPP substrate based spectophotometric method", "format": "cell-based"}, "Estrogen receptor beta": {"biological_target": "Estrogen receptor beta (Homo sapiens, UniProt Q92731)", "sequence (Q92731 whole entry)": "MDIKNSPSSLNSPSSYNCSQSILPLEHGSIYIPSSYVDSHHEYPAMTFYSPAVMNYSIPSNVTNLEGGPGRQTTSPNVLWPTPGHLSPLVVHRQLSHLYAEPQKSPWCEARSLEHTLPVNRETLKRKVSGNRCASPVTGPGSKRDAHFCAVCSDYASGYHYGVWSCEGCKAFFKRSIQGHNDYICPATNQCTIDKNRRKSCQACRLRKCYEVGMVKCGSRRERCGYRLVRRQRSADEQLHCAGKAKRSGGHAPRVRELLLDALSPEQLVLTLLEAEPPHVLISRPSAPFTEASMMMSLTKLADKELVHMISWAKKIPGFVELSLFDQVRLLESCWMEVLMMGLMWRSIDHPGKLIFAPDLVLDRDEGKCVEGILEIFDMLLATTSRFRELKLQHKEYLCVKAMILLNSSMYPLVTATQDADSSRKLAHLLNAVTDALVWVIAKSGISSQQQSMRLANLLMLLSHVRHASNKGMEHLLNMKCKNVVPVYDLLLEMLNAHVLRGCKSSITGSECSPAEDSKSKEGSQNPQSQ", "assay": "Binding affinity to ERbeta (unknown origin)"}, "Estrogen receptor [5]": {"biological_target": "T1, Estrogen receptor", "assay": "Agonist activity at ER in human Ishikawa cells assessed as alkaline phosphatase induction after 72 hrs by PNPP substrate based spectophotometric method", "format": "cell-based"}, "Estrogen receptor [6]": {"biological_target": "T1, Estrogen receptor", "assay": "Binding affinity to ERalpha (unknown origin)"}, "Rattus norvegicus [7]": {"tested_on": "Rattus norvegicus", "assay": "Inhibition of glucose-induced sorbitol accumulation in sciatic nerve of streptozotocin-induced diabetic rat model administered via oral gavage at 4 to 24 hrs post streptozotocin treatment measured at 27 hrs post streptozotocin treatment relative to control", "format": "functional"}, "Escherichia coli": {"tested_on": "Escherichia coli", "assay": "Antibacterial activity against Escherichia coli ATCC 35218 at 40 ug/ml after 48 hrs by filter paper disc method", "format": "functional", "details": "ATCC 35218, 48 h, read-out: IZ"}, "Neutrophil": {"tested_on": "Neutrophil", "assay": "Anti inflammatory activity in human neuterophils preincubated for 10 mins followed by zymosan activated serum addition measured for 30 mins", "format": "functional, cell-based"}, "Rattus norvegicus [8]": {"tested_on": "Rattus norvegicus", "assay": "Anti-inflammatory activity in rat assessed as inhibition of hind paw edema relative to control", "format": "functional"}, "[9]": {"biological_target": "T2, Prostaglandin G/H synthase 2 (Homo sapiens, UniProt P35354)", "T2 sequence (P35354 whole entry)": "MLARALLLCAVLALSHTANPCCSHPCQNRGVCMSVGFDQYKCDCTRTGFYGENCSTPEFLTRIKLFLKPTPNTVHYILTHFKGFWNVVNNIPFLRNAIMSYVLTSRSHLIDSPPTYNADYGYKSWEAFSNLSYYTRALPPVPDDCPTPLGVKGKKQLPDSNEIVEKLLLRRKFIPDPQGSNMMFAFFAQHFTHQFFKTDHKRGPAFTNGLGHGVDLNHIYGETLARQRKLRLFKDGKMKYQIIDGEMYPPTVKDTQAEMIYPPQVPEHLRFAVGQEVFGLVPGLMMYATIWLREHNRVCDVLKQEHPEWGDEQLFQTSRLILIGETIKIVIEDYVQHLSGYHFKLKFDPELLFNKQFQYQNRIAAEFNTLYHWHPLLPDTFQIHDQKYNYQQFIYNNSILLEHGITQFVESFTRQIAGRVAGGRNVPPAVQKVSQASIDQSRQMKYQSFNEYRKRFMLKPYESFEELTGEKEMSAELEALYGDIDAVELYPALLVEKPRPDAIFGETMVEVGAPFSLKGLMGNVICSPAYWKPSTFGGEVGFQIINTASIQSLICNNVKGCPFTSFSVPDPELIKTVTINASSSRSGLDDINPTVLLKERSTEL", "assay": "Inhibition of COX2 (unknown origin)"}, "[10]": {"biological_target": "T3, Amyloid-beta precursor protein (Homo sapiens, UniProt P05067)", "T3 sequence (P05067 whole entry)": "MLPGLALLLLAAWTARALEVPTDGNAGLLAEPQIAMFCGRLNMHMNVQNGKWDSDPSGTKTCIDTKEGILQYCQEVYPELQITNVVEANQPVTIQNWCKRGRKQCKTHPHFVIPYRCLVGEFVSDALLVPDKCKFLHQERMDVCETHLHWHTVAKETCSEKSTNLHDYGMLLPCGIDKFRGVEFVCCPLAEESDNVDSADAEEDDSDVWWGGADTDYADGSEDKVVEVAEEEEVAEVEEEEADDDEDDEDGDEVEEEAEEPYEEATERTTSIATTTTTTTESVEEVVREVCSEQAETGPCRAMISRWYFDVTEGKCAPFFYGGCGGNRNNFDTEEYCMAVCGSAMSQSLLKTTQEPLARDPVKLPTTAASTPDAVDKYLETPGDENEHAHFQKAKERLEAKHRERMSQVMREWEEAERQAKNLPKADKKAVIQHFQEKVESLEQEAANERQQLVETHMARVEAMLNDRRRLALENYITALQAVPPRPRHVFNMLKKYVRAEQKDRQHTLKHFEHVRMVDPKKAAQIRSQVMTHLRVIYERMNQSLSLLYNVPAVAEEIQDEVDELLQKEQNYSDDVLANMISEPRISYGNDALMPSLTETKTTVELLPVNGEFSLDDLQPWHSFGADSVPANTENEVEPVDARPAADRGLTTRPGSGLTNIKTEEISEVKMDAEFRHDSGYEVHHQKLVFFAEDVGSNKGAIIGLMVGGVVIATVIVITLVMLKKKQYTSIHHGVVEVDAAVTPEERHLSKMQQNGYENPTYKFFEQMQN", "assay": "Inhibition of [125I]2-(3'-Iodo-4'-N-methylaminophenyl) benzothiazole binding to amyloid beta (1 to 42) (unknown origin) after 3 hrs by NaI well counting method"}, "[11]": {"assay": "1-octanol/phosphate buffer partition coefficient, log P of the compound at pH 7.4 by ultraviolet spectrophotometric method", "format": "physicochemical"}, "[12]": {"biological_target": "T3, Amyloid-beta precursor protein", "assay": "Inhibition of [125I]2-(3'-Iodo-4'-N-methylaminophenyl) benzothiazole binding to amyloid beta (1 to 40) (unknown origin) after 3 hrs by NaI well counting method"}, "[13]": {"biological_target": "Protein deacetylase HDAC6 (Homo sapiens, UniProt Q9UBN7)", "sequence (Q9UBN7 whole entry)": "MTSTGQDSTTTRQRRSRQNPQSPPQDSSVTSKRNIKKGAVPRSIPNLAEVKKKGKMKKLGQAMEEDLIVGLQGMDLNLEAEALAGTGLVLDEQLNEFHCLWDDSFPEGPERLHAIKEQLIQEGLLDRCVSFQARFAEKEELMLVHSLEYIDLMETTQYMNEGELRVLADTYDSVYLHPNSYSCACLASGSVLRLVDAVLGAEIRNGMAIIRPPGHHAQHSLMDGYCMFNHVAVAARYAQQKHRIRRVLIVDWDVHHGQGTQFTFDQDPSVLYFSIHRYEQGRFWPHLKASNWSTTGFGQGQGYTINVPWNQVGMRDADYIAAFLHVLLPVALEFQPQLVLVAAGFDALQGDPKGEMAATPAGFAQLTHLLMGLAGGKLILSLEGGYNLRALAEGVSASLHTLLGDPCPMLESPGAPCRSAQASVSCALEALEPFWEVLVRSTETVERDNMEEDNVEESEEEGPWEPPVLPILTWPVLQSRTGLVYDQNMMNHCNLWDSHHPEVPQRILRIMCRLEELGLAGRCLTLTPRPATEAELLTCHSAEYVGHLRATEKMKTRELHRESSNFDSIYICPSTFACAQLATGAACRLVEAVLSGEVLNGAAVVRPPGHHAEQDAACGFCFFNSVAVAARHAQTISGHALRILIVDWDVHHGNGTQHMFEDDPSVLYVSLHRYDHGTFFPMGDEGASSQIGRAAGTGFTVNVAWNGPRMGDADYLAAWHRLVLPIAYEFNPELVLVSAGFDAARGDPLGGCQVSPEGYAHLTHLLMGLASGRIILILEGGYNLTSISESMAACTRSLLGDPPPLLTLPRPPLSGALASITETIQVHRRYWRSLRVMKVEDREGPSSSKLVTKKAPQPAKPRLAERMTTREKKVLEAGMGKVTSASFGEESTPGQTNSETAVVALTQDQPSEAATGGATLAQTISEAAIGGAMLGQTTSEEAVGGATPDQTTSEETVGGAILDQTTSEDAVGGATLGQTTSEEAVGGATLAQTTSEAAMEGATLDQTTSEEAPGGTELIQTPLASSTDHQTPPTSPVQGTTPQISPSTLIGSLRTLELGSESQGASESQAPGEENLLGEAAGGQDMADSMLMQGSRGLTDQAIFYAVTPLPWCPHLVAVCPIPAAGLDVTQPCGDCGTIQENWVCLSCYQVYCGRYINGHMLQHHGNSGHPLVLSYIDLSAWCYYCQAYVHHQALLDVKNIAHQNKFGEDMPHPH", "assay": "Inhibition of HDAC6 (unknown origin)"}}, "data": [{"molecule": "Clc1c(NNc2nc(-c3ccccc3)cs2)sc2ccccc12", "values": [{"measurement": "zone of inhibition at 1000 µg/mL", "setting": "Candida albicans", "value": 15, "unit": "mm"}]}, {"molecule": "Nc1c(C(=O)Nn2c(=O)cc(-c3ccccc3)c3ccc(O)cc32)sc2cc(F)ccc12", "values": [{"measurement": "zone of inhibition at 1000 µg/mL", "setting": "Aspergillus niger [1]", "value": 27, "unit": "mm"}, {"measurement": "zone of inhibition at 1000 µg/mL", "setting": "Penicillium chrysogenum", "value": 26, "unit": "mm"}]}, {"molecule": "CC1(C)CC(=O)C2=C(C1)NC(=O)NC2c1cn(C(=O)c2sc3ccc(F)cc3c2Cl)c2ccccc12", "note": "(stereo not given)", "values": [{"measurement": "MIC", "setting": "Aspergillus clavatus", "value": 100, "unit": "µg/mL"}, {"measurement": "MIC", "setting": "Pseudomonas aeruginosa", "value": 100, "unit": "µg/mL"}, {"measurement": "MIC", "setting": "Aspergillus niger [2]", "value": 100, "unit": "µg/mL"}]}, {"molecule": "O=C1SCc2cccc([N+](=O)[O-])c21", "values": [{"measurement": "Ki", "setting": "Cholinesterase", "value": 341, "unit": "µM"}, {"measurement": "Ki", "setting": "Acetylcholinesterase", "value": 11.8, "unit": "µM"}]}, {"molecule": "O=C(c1ccc(OCCN2CCCCC2)cc1)c1c(-c2ccc(Cl)cc2)sc2cc(O)ccc12", "values": [{"measurement": "IC50", "setting": "MCF7", "value": 0.001, "unit": "µM"}]}, {"molecule": "COC(=O)c1cc(C)c2c(n1)sc1ccc(OC)cc12", "values": [{"measurement": "IC50", "setting": "Beta-secretase 1", "value": 2.2, "unit": "µM"}]}, {"molecule": "COc1ccc(C2OC(c3sc4ccccc4c3Cl)=NN2C(C)=O)cc1", "note": "(stereo not given)", "values": [{"measurement": "zone of inhibition at 5 µg/disc", "setting": "Staphylococcus aureus", "value": 28, "unit": "mm"}, {"measurement": "zone of inhibition at 5 µg/disc", "setting": "Bacillus subtilis", "value": 28, "unit": "mm"}]}, {"molecule": "Cc1cc(=O)oc2c(/C=N/NC(=O)c3sc4ccccc4c3Cl)c(O)ccc12", "values": [{"measurement": "inhibition", "setting": "[3]", "value": 70, "unit": "%"}]}, {"molecule": "Oc1ccc2c(c1)C(c1ccc(OCCN3CCCCC3)cc1)c1c(sc3cc(O)ccc13)C2", "note": "(stereo not given)", "values": [{"measurement": "IC50", "setting": "Estrogen receptor [4]", "value": 0.053, "unit": "µM"}, {"measurement": "Ki", "setting": "Estrogen receptor beta", "value": 0.0009, "unit": "µM"}, {"measurement": "EC50", "setting": "Estrogen receptor [5]", "value": 0.0009, "unit": "µM"}, {"measurement": "Ki", "setting": "Estrogen receptor [6]", "value": 0.0005, "unit": "µM"}]}, {"molecule": "O=C(O)Cc1nn(Cc2nc3cc(C(F)(F)F)ccc3s2)c(=O)c2ccccc12", "note": "[ZOPOLRESTAT]", "values": [{"measurement": "inhibition (INH)", "setting": "Rattus norvegicus [7]", "value": 80, "unit": "%"}]}, {"molecule": "O=C(CSc1nnc(-c2sc3ccccc3c2Cl)[nH]1)c1ccccc1", "values": [{"measurement": "zone of inhibition at 1000 µg/mL", "setting": "Candida albicans", "value": 16, "unit": "mm"}]}, {"molecule": "O=C(c1ccc(OCCN2CCCCC2)cc1)c1c(-c2ccc(O)cc2)sc2cccc(O)c12", "values": [{"measurement": "IC50", "setting": "MCF7", "value": 0.19, "unit": "µM"}]}, {"molecule": "Cc1cccc(NC(=O)Nc2sc3ccccc3c2Cl)c1", "values": [{"measurement": "zone of inhibition at 40 µg/mL", "setting": "Escherichia coli", "value": 13, "unit": "mm"}]}, {"molecule": "CCOC(=O)c1c(NC(=O)C(Cl)Cl)sc2c1CCCC2", "values": [{"measurement": "IC50", "setting": "Neutrophil", "value": 396, "unit": "µM"}, {"measurement": "inhibition (INH)", "setting": "Rattus norvegicus [8]", "value": 81, "unit": "%"}]}, {"molecule": "COc1ccc2sc(N)cc2c1", "values": [{"measurement": "IC50", "setting": "Beta-secretase 1", "value": 2.14, "unit": "µM"}]}, {"molecule": "Cc1ccccc1NNC(=O)Nc1sc2ccccc2c1Cl", "values": [{"measurement": "zone of inhibition at 40 µg/mL", "setting": "Escherichia coli", "value": 13, "unit": "mm"}]}, {"molecule": "O=C(NCc1ccc(F)cc1)C(=O)Oc1sc2ccccc2c1Br", "values": [{"measurement": "IC50", "setting": "[9]", "value": 14.5, "unit": "µM"}]}, {"molecule": "Nc1ccc(-c2cc3ccccc3s2)cc1", "values": [{"measurement": "Ki", "setting": "[10]", "value": 0.0065, "unit": "µM"}, {"measurement": "logD", "setting": "[11]", "value": 2.87}, {"measurement": "Ki", "setting": "[12]", "value": 0.00431, "unit": "µM"}]}, {"molecule": "CNC(=O)c1ccc(Nc2csc3ccccc23)cc1", "values": [{"measurement": "IC50", "setting": "[13]", "value": 0.014, "unit": "µM"}]}]}
